In ChEMBL document CHEMBL6096649, “Enantiomeric C-6 fluorinated swainsonine derivatives as highly selective and potent inhibitors of α-mannosidase and α-l-rhamnosidase: Design, synthesis and structure-activity relationship study” (Eur J Med Chem, 2025):
pIC50, pKi: −log10 of the molar value.

Assays:
[1] = Inhibition of human liver Alpha-mannosidase
Oryza sativa = assay: Inhibition of rice Alpha-glucosidase using p-nitrophenyl glycoside as substrate assessed as p-nitrophenol release at 1000 uM by spectrometric analysis relative to control
[2] = target: T1, Alpha-mannosidase (Canavalia ensiformis) (UniProt C0HJB3); assay: Inhibition of jack bean alpha-mannosidase using p-nitrophenyl glycoside as substrate assessed as release of p-nitrophenol at 1000 uM by spectrometric analysis relative to control
T1 sequence (whole entry): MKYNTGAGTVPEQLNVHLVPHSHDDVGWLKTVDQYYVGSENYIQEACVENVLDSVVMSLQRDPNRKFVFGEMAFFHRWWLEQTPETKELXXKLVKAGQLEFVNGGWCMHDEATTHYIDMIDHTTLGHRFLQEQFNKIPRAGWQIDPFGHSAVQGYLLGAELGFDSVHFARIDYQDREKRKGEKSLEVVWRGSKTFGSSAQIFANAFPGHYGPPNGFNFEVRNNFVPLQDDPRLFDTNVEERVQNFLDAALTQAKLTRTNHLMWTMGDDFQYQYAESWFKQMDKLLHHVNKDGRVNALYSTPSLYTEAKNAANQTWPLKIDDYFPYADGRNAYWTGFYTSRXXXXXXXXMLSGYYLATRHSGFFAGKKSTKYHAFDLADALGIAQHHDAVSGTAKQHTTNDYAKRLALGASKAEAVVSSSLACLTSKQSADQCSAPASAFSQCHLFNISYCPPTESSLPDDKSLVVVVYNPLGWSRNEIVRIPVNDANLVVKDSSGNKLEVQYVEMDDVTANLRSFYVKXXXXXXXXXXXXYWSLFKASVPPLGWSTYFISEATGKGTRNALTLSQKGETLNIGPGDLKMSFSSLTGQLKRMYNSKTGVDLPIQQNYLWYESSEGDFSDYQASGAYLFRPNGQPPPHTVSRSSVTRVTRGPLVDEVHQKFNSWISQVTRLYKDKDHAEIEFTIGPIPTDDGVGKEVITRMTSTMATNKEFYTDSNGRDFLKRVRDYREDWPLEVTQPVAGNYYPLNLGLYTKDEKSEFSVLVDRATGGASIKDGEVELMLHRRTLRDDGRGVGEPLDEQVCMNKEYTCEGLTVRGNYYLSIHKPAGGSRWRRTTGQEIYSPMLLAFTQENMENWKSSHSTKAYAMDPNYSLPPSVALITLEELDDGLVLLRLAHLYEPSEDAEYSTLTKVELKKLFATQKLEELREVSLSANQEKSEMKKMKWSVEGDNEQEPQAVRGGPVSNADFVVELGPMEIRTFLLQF

Escherichia coli = assay: Inhibition of Escherichia coli beta-glucuronidase using p-nitrophenyl glycoside as substrate assessed as release of p-nitrophenol at 1000 uM by spectrometric analysis relative to control
Prunus dulcis = assay: Inhibition of almond Beta-glucosidase using p-nitrophenyl glycoside as substrate assessed as release of p-nitrophenol at 1000 uM by spectrometric analysis relative to control
Bos taurus [3] = organism: Bos taurus; assay: Inhibition of bovine liver beta-galactosidase using p-nitrophenyl glycoside as substrate assessed as release of p-nitrophenol at 1000 uM by spectrometric analysis relative to control
[4] = target: Alpha-galactosidase (Coffea arabica) (UniProt Q42656); assay: Inhibition of coffee bean alpha-galactosidase using p-nitrophenyl glycoside as substrate assessed as release of p-nitrophenol at 1000 uM by spectrometric analysis relative to control
Alpha-galactosidase (Coffea arabica), sequence (Q42656 16-378 limits assumed): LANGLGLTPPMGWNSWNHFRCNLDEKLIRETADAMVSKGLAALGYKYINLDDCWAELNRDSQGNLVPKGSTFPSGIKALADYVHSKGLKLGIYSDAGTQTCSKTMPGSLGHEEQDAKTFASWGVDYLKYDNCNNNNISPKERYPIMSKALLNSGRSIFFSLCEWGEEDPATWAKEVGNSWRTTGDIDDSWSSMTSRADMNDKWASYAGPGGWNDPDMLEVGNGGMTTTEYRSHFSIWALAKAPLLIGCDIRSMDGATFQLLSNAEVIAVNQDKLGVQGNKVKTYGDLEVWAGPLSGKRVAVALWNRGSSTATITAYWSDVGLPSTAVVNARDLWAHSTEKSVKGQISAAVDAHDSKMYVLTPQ

Helix pomatia = assay: Inhibition of snail beta-mannosidase using p-nitrophenyl glycoside as substrate assessed as release of p-nitrophenol at 1000 uM by spectrometric analysis relative to control
Homo sapiens = organism: Homo sapiens; assay: Inhibition of human lysosome beta-glucosidase using p-nitrophenyl glycoside as substrate assessed as release of p-nitrophenol at 1000 uM by spectrometric analysis relative to control
Aspergillus niger = assay: Inhibition of Aspergillus niger amyloglucosidase using p-nitrophenyl glycoside as substrate assessed as release of p-nitrophenol at 1000 uM by spectrometric analysis relative to control
[5] = target: Alpha-glucosidase (Saccharomyces cerevisiae S288c) (UniProt P53341+P38158+P07265); assay: Inhibition of yeast Alpha-glucosidase using p-nitrophenyl glycoside as substrate assessed as p-nitrophenol release at 1000 uM by spectrometric analysis relative to control; assay type: protein assay
[6] = target: Alpha glucosidase (Homo sapiens) (UniProt O43451+P10253+P14410+Q2M2H8); assay: Inhibition of human Alpha-glucosidase using p-nitrophenyl glycoside as substrate assessed as p-nitrophenol release at 1000 uM by spectrometric analysis relative to control; assay type: protein assay
Bos taurus [7] = organism: Bos taurus; assay: Inhibition of bovine liver beta-glucuronidase using p-nitrophenyl glycoside as substrate assessed as release of p-nitrophenol at 1000 uM by spectrometric analysis relative to control
Penicillium decumbens = assay: Inhibition of Penicillium decumbens alpha-L-rhamnosidase using p-nitrophenyl glycoside as substrate assessed as release of p-nitrophenol at 1000 uM by spectrometric analysis relative to control
Rattus norvegicus = organism: Rattus norvegicus; assay: Inhibition of rat intestinal Alpha-glucosidase using p-nitrophenyl glycoside as substrate assessed as p-nitrophenol release at 1000 uM by spectrometric analysis relative to control
Sus scrofa = organism: Sus scrofa; assay: Inhibition of porcine kidney Alpha alpha-trehalase using p-nitrophenyl glycoside as substrate assessed as release of p-nitrophenol at 1000 uM by spectrometric analysis relative to control
Bos taurus [8] = organism: Bos taurus; assay: Inhibition of bovine liver beta-glucosidase using p-nitrophenyl glycoside as substrate assessed as release of p-nitrophenol at 1000 uM by spectrometric analysis relative to control

| SMILES | pIC50 [1] | inhibition (Oryza sativa) | inhibition [2] | inhibition (Escherichia coli) | inhibition (Prunus dulcis) | inhibition (Bos taurus [3]) | inhibition [4] | inhibition (Helix pomatia) | inhibition (Homo sapiens) | inhibition (Aspergillus niger) | inhibition [5] | inhibition [6] | inhibition (Bos taurus [7]) | inhibition (Penicillium decumbens) | inhibition (Rattus norvegicus) | inhibition (Sus scrofa) | inhibition (Bos taurus [8]) | pKi [1] |
| --- | --- | --- | --- | --- | --- | --- | --- | --- | --- | --- | --- | --- | --- | --- | --- | --- | --- | --- |
| Cc1ccc(C(=O)C[C@H]2CC[C@@H](O)[C@@H]3[C@H](O)[C@H](O)CN23)cc1 | 4.54 | – | – | – | – | – | – | – | – | – | – | – | – | – | – | – | – | – |
| O[C@H]1[C@H]2[C@@H](O)CC(F)(F)CN2C[C@H]1O | – | 2.5% | 12.2% | 0% | 3.7% | 0% | 0% | 0.8% | 0% | 1.8% | 1.1% | 0.4% | 11.4% | 144% | 25% | 1.5% | 5.8% | – |
| NC[C@@H]1[C@@H](O)[C@@H](O)[C@H]2[C@H](O)CCCN21 | – | – | – | – | – | – | – | – | – | – | – | – | – | – | – | – | – | 7.01 |
| OC[C@@H](O)[C@H]1NC[C@@H](O)[C@H]1O | 5.41 | – | – | – | – | – | – | – | – | – | – | – | – | – | – | – | – | – |
| O[C@@H]1[C@@H]2[C@@H](O)C[C@H](F)CN2C[C@@H]1O | – | 0% | 3.9% | 9.3% | 0% | 11.7% | 0% | 2.5% | 9.6% | 17.7% | 4.5% | 5.1% | 12.5% | 0.43% | 18.3% | – | 16% | – |
| O[C@H]1[C@H]2[C@@H](O)CCCN2C[C@H]1O | 4.29 | 0% | 51% | 0% | 3.2% | 0.8% | 0% | 0% | 0% | 1.8% | 0% | 0% | 5.7% | 47.5% | 0% | 0% | 4.5% | – |
| O[C@@H]1[C@@H]2[C@H](O)CC(F)(F)CN2C[C@@H]1O | – | 0% | 44.8% | 0% | 0% | 0.8% | 0% | 0% | 0.7% | 0.1% | 0% | 2.2% | 18.8% | 63% | 2.7% | 1.5% | 10.2% | – |
| O[C@H]1[C@H]2[C@@H](O)C[C@H](F)CN2C[C@H]1O | – | 15.9% | 14.9% | 0% | 3.2% | 0% | 0% | 21.7% | 7.1% | 2.3% | 3.4% | 3% | 3.1% | 11.3% | 0% | – | 3.8% | – |
| O=C(OC[C@H](NC[C@H]1OC[C@H](O)[C@@H]1O)c1ccccc1)c1ccc(Br)cc1 | 4.05 | – | – | – | – | – | – | – | – | – | – | – | – | – | – | – | – | – |
| O[C@H]1[C@H]2[C@@H](O)C[C@@H](F)CN2C[C@H]1O | – | 14% | 14.4% | 4.1% | 5.3% | 29.2% | 0% | 3.3% | 17.3% | 1.4% | 6.2% | 5.3% | 15.1% | 118% | 10.9% | 4.6% | 19.9% | – |
| CC(=O)NCCCC[C@H]1C[C@@H](O)[C@@H]2[C@H](O)[C@H](O)CN2C1 | 4.29 | – | – | – | – | – | – | – | – | – | – | – | – | – | – | – | – | – |
| OC[C@H]1[C@@H](O)[C@@H](O)CN1Cc1ccccc1 | 7.05 | – | – | – | – | – | – | – | – | – | – | – | – | – | – | – | – | – |
| O[C@@H]1[C@H](O)C[S+]2CCCS[C@H]12 (stereo partly drawn) | 4.01 | – | – | – | – | – | – | – | – | – | – | – | – | – | – | – | – | – |
| O[C@@H]1[C@@H]2[C@H](O)CCCN2C[C@@H]1O | – | 0% | 2.8% | 0% | 1% | 0% | 0% | 11.7% | 3.1% | 11.4% | 3.4% | 0% | 8.8% | 58% | 0% | 0% | 0% | – |
| OC[C@H]1[C@@H](O)[C@@H](O)CN1Cc1ccc(I)cc1 | 7.05 | – | – | – | – | – | – | – | – | – | – | – | – | – | – | – | – | – |
| OC[C@H]1[C@@H](O)[C@@H](O)CN1Cc1ccc(Br)cc1 | 7.05 | – | – | – | – | – | – | – | – | – | – | – | – | – | – | – | – | – |
| O[C@@H]1[C@@H]2[C@@H](O)C[C@@H](F)CN2C[C@@H]1O | – | 27.3% | 1.6% | 9.3% | 0% | 21.7% | 0% | 1.7% | 43.5% | 2.3% | 6.2% | 15.6% | – | 5.2% | 47.3% | 36% | 25.6% | – |
| O[C@@H]1[C@@H]2[C@@H](O)CC(F)(F)CN2C[C@@H]1O | – | 0% | 28.2% | 0% | 10.5% | – | 0% | 0% | 0% | 10.9% | 0% | 0% | 14.1% | 2.2% | 0% | 28.4% | 38.5% | – |
| O[C@@H]1[C@@H]2[C@H](O)C[C@@H](F)CN2C[C@@H]1O | – | 23.5% | 18.8% | 0% | 4.7% | 15% | 0% | 1.7% | 3.4% | 11.4% | 4.5% | 0% | 0.1% | 125% | 11.6% | 11.7% | 9% | – |
| O[C@@H]1[C@@H]2[C@H](O)C[C@H](F)CN2C[C@@H]1O | – | 0% | 0% | 28.9% | 3.2% | 41.7% | 0% | 0% | – | 10.9% | 18% | 37.6% | – | 52% | – | 0.5% | 38.5% | – |
| O[C@H]1[C@H]2[C@H](O)CCCN2C[C@H]1O [TRIDOLGOSIR] | 6.55 | 31.2% | 0.28% | 0% | 2.1% | 5.8% | 0% | 0% | 0% | 8.6% | 0% | 0% | 8.8% | 34.2% | 13.1% | 1% | 11.5% | – |
| OC[C@H](NC[C@H]1OC[C@H](O)[C@@H]1O)c1ccccc1 | 5.38 | – | – | – | – | – | – | – | – | – | – | – | – | – | – | – | – | – |
| OC[C@@H]1[C@@H](O)[C@@H](O)[C@H]2[C@H](O)CCCN21 | 5.92 | – | – | – | – | – | – | – | – | – | – | – | – | – | – | – | – | – |
